Experimental data: ChEMBL document CHEMBL4118032, “Geranylpyrrol A and Piericidin F from Streptomyces sp. CHQ-64 ΔrdmF” (J Nat Prod, 2017)
Counter-ions that a name gives are not always drawn.

Assays:
Assay type in all cases: functional, cell-based
A549 = assay: Cytotoxicity against human A549 cells after 24 hrs by sulforhodamine B assay; settings: A549, 24 h
NCI-H1975 = assay: Cytotoxicity against human NCI-H1975 cells after 24 hrs by sulforhodamine B assay; settings: NCI-H1975, 24 h
[1] = Cytotoxicity against human MCF7/ADM cells after 24 hrs by sulforhodamine B assay
NB-4 = assay: Cytotoxicity against human NB4 cells after 72 hrs by MTT assay; settings: NB-4, 72 h
HCT-116 = assay: Cytotoxicity against human HCT116 cells after 24 hrs by sulforhodamine B assay; settings: HCT-116, 24 h
HeLa = assay: Cytotoxicity against human HeLa cells after 24 hrs by sulforhodamine B assay
K562 = assay: Cytotoxicity against human K562 cells after 72 hrs by MTT assay; settings: K562, 72 h
HL-60 = assay: Cytotoxicity against human HL60 cells after 72 hrs by MTT assay; settings: HL-60, 72 h

Row | Compound | IC50 (A549) [µM] | IC50 (NCI-H1975) [µM] | IC50 [1] [µM] | IC50 (NB-4) [µM] | IC50 (HCT-116) [µM] | IC50 (HeLa) [µM] | IC50 (K562) [µM] | IC50 (HL-60) [µM]
1 | C/C=C(\C)[C@H](OC)[C@H](C)/C=C(C)/C=C/C/C(C)=C/Cc1nc(OC)cc(O)c1C | 0.56 | 0.49 | > 30 | 0.037 | > 30 | 0.003 | > 30 | > 30
2 | COC(=O)c1[nH]cc(C/C=C(\C)CCC=C(C)C)c1NC(C)=O | > 30 | > 30 | > 30 | > 30 | > 30 | > 30 | > 30 | > 30
3 | COc1cccc2c1C(=O)c1c(O)c3c(c(O)c1C2=O)C[C@@](O)(C(=O)CO)C[C@@H]3O[C@H]1C[C@H](N)[C@H](O)[C@H](C)O1 [DOXORUBICIN HYDROCHLORIDE] | – | 0.2 | 25.2 | 0.4 | – | – | – | –
